Earlier results on one compound are cited in patent US11389549B2, “Diagnosis-treatment integrated nano-probe for 19F-MR/fluorescence multi-mode molecular imaging and drug-loading and preparation method and application of nano-probe” (Harbin Medical University, priority 2019, dated 2022).

`C=CC(=O)Nc1cc(Nc2nccc(-c3cn(C)c4ccccc34)n2)c(OC)cc1N(C)CCN(C)C` [AZD9291]: the “solubility in organic solvents” value (DMSO and other organic solvents) was “soluble to Dimethyl Sulfoxide (DMSO) and other organic solvents merely”. Under “water”, the solubility in water result is “insoluble to water”.
